We go through 11 compounds from US10647680B2, “Urea compound, preparation method therefor and medical use thereof” (Ancureall Pharmaceutical (Shanghai) Co., Ltd., priority 2016, dated 2020).

Data set [1] concerns HCT116 (KRAS G13D mutant type). Kind of data set: In vitro growth inhibition (GI50), HCT116. The class given is cell-based. The settings on record: Homo sapiens, HCT-116. An excerpt: (§1) Tumor cell line is an effective cell model for studying the inhibition of tumor cell growth or proliferation in vitro. In the present invention, a representative tumor cell line was selected to determine the cell growth inhibition activity of the present compound. All cell lines used were from ATCC, DSMZ, and the Cell Bank of the Chinese Academy of Sciences. Cell culture conditions and methods were in accordance with the requirements of each cell line. Cells were subcultured in vitro for no more than 3 passages each time, and as required, single-clone purification and identification of cell lines could be carried out.
(§2) The cell culture media used were RPMI1640 (Gibco), MEM (Gibco), McCOY'S5A (Gibco), and IMDM (Gibco). The complete medium was prepared by supplement with 5˜20% fetal calf serum (Gibco), 1% double-antibiotics (10000 units/mL penicillin and 10000 units/mL), 2 mM glutamine or 1 mM sodium pyruvate, respectively.
Human large cell lung cancer cell NCI-H460 (KRAS […] mutant type, ATCC), human non-small cell lung cancer cell line H1299 (NRAS Q61K mutant type, ATCC), human melanoma cell line A375 (BRAF V600E mutant type, Shanghai Cell Bank of Chinese Academy of Sciences), human colon cancer cell line HCT116 (KRAS G13D mutant type, Shanghai Cell Bank, Chinese Academy of Sciences) were cultured in a complete medium of 1×RPMI1640 (10% FBS), respectively. Human non-small cell lung cancer cells A549 (KRAS G12S mutant type, Shanghai Cell Bank, Chinese Academy of Sciences) were cultured in a complete medium of 1× Ham's supplemented with 10% FBS, 1% double antibody, and 2 mM glutamine.
(§3) Adherent cells were digested with 0.25% pancreatin-EDTA (Gibco). The suspension cells were collected by centrifugation. The supernatant was discarded and the cell pellet was resuspended and counted. Different cell concentrations (5˜10×10^4 cells/mL) were prepared according to the growth cycle of each cell line and then seeded on a 96-well plate (Corning), 100 μL/well. The cells were incubated overnight at 37° C., 5% CO2. The compounds were added to the cells on the second day with 2 wells in parallel. The final concentration of organic solvent shall not exceed 1%. The cells were continually incubated for 3 to 5 days, and then subjected to MTT assay.
(§4) The compound of the present invention and the control compound were dissolved in DMSO (Sigma) respectively, with the purity of more than 98%. The compound was stored in a concentration of 10 mM at −20° C. and diluted to 2- or 10-fold series prior to use.
(§5) Dojindo CCK8 reagent kit was used as MTT assay. THERMO […] FC meter was used as microplate reader.
(§6) For adherent cells, culture medium was removed and immediately replaced with the fresh prepared medium which contains 10% CCK8 reagent (100 μL/well). For the suspension cells, CCK8 was directly added to 10% of the final concentration. The cells were continually incubated for 1˜4 h. When a dark yellow color could be observed in the solvent control wells, the absorbance value at OD450 nm was measured and the cell growth rate was calculated according to the following formula: Cell Growth Rate (%)=100*(T−T0)/(C−T0) T=optical density of drug treatment cell well—optical density of blank control well; T0=optical density of cell well before drug treatment—optical density of blank control well; C=optical density of cell well of solvent control group—optical density of blank control well. The concentration value of 50% inhibition of cell growth (GI50) was calculated according to the drug concentration and cell growth rate curve. The experiment was independently repeated 1˜3 times, and subject to biological statistical analysis. 4. Experimental Results
Tumor cell growth inhibition test was performed by selecting representative compounds (compounds 4, 11, 12, 16, 27, 68, 71, 77, 79, 89 and 116 of the present invention). The initial concentration of the compound was 5,000 nM, then it was serially diluted by 2-fold or 10-fold to 0.01 nM. […]

The subject of a further data set is MKN-45 (c-MET amp). Nature of the data set: In vitro growth inhibition (GI50), MKN-45. The format is cell-based. The settings on record: Homo sapiens; MKN-45, cMET Amp+.
Description: as §1, §2
The human gastric cancer cell line MKN-45 (c-MET amp, ATCC) and the non-small cell lung cancer cell line NCI-H1993 (c-MET amp, ATCC) were cultured in complete medium comprising 1×RPMI1640 and 10% FBS, respectively.
as §3, §4, §5, §6
Tumor cell growth inhibition test was performed by selecting representative compounds (compounds 4, 11, 12, 16, 27, 68, 71, 77, 79, 89 and 116 of the present invention). The initial concentration of the compound was 5,000 nM, then it was serially diluted by 2-fold or 10-fold to 0.01 nM. The GI50 value of each test compound was calculated according to the GI50 assay and calculation method. The experiments were repeated 1 to 3 times, and data were subjected to biological statistical analysis.

The next data set can be described thus: Solubility test. The format is physicochemical. The settings on record: in water at 25° C.±2° C. Here is the method:
The fine powder of the test sample was weighed into an appropriate amount of water at 25° C.±2° C. and shaken vigorously for 30 seconds every 5 minutes so that it was fully dissolved within 30 minutes. If no visible solute particles were observed, it was considered completely dissolved. “Readily soluble” means that 1 g of the test sample could be dissolved in 1-10 ml of water; and “soluble” means that 1 g of the test sample could be dissolved in 10-30 ml of water; “slightly soluble” means that 1 g of the test sample could be dissolved in 30-100 ml of water; and “sparingly soluble” means that 1 g of the test sample could be dissolved in 100-1,000 ml of water; “nearly insoluble or insoluble” means that 1 g of the test sample could not be completely dissolved in 10,000 ml of water.

The structures appear in SMILES notation. Where a name gives a salt, the structure may show the parent alone.

The GI50 is the concentration that inhibits growth by half. A low value points to more potent growth inhibition. For `CC(C)(C)c1cc(NC(=O)Nc2ccc(-n3cnc4cc(O)ccc43)cc2)no1` [Compound 4, 1-(5-tert-butyl-isoxazol-3-yl)-3-[4-(5-hydroxy-benzimidazol-1-yl)-phenyl]-urea], the GI50 (in data set [1]; in the data set on MKN-45 (c-MET amp)) was > 2500 nM each time.
For `CC(C)(C)c1cc(NC(=O)Nc2ccc(-n3cnc4cc(OCCO)ccc43)cc2)no1` [Compound 11, 1-(5-tert-butyl-isoxazol-3-yl)-3-{4-[5-(2-hydroxy-ethoxyl)-benzimidazol-1-yl]-phenyl]-urea], the GI50 (in data set [1]; with MKN-45 (c-MET amp)) was > 2500 nM in each case.
With `CC(C)(C)c1cc(NC(=O)Nc2ccc(-n3cnc4cc(OCCN5CCOCC5)ccc43)cc2)no1` [Compound 16, 1-(5-tert-butyl-isoxazol-3-yl)-3-{4-[5-(2-morpholin-4-yl-ethoxyl)-benzimidazol-1-yl]-phenyl}-urea], the Solubility entry in “Solubility test” (listed as 16 Free base) was “insoluble (“nearly insoluble or insoluble” means that 1 g of the test sample could not be completely dissolved in 10,000 ml of water)”. Also, the GI50 (in data set [1]; with MKN-45 (c-MET amp)) was > 2500 nM throughout.
`CC(C)(C)c1cc(NC(=O)Nc2ccc(-n3cnc4ccc(OCCN5CCOCC5)cc43)cc2)no1` [Compound 27, 1-(5-tert-butyl-isoxazol-3-yl)-3-{4-[6-(2morpholin-4-yl-ethoxyl)-benzimidazol-1-yl]-phenyl}-urea]: the GI50 (in data set [1]; in the data set with MKN-45 (c-MET amp)) was > 2500 nM in each case.
For the compound `CC(C)(C)c1cc(NC(=O)Nc2ccc(-n3cnc4ccccc43)cc2)[nH]n1` [Compound 68, 1-(4-benzimidazol-1-yl-phenyl)-3-(5-tert-butyl-2H-pyrazol-3-yl)-urea], the GI50 (in data set [1]; in the data set on MKN-45 (c-MET amp)) was > 2500 nM in each case.
`COc1ccc2c(c1)ncn2-c1ccc(NC(=O)Nc2cc(C(C)(C)C)n[nH]2)cc1` [Compound 71, 1-(5-tert-butyl-2H-pyrazol-3-yl)-3-[4-(5-methoxyl-benzimidazol-1-yl)-phenyl]-urea]: in “Solubility test” (listed as 71 Free base), the Solubility entry is recorded as “insoluble (“nearly insoluble or insoluble” means that 1 g of the test sample could not be completely dissolved in 10,000 ml of water)”. The GI50 (in data set [1]; in the data set with MKN-45 (c-MET amp)) was > 2500 nM each time.
On to `COCCOc1ccc2c(c1)ncn2-c1ccc(NC(=O)Nc2cc(C(C)(C)C)n[nH]2)cc1` [Compound 77 Mesylate, 1-(5-tert-butyl-2H-pyrazol-3-yl)-3-{4-[5-(2-methoxyl-ethoxyl)-benzimidazol-1-yl]-phenyl}-urea], for which the Solubility entry in “Solubility test” (listed as 77 Mesylate) is “soluble (“soluble” means that 1 g of the test sample could be dissolved in 10-30 ml of water)”.
With `COCCOc1ccc2c(c1)ncn2-c1ccc(NC(=O)Nc2cc(C(C)(C)C)n[nH]2)cc1` [Compound 77, 1-(5-tert-butyl-2H-pyrazol-3-yl)-3-{4-[5-(2-methoxyl-ethoxyl)-benzimidazol-1-yl]-phenyl}-urea], the Solubility result in the data set “Solubility test” (listed as 77 Free base) is given as “insoluble (“nearly insoluble or insoluble” means that 1 g of the test sample could not be completely dissolved in 10,000 ml of water)”. Moreover, the GI50 (in data set [1]; in the data set on MKN-45 (c-MET amp)) was > 2500 nM throughout.
For the compound `CC(C)(C)c1cc(NC(=O)Nc2ccc(-n3cnc4cc(OCCO)ccc43)cc2)[nH]n1` [Compound 79, 1-(5-tert-butyl-2H-pyrazol-3-yl)-3-{4-[5-(2-hydroxy-ethoxyl)-benzimidazol-1-yl]-phenyl]urea], the GI50 (in data set [1]; in the data set on MKN-45 (c-MET amp)) was > 2500 nM in each case.
On to `CC(C)(C)c1cc(NC(=O)Nc2ccc(-n3cnc4cc(OCCN5CCOCC5)ccc43)cc2)[nH]n1` [Compound 89, 1-(5-tert-butyl-2H-pyrazol-3-yl)-3-{4-[5-(2-morpholin-4-yl-ethoxyl)-benzimidazol-1-yl]-phenyl}-urea], for which the Solubility entry in the data set “Solubility test” (listed as 89 Free base) is “insoluble (“nearly insoluble or insoluble” means that 1 g of the test sample could not be completely dissolved in 10,000 ml of water)”. The GI50 (in data set [1]; with MKN-45 (c-MET amp)) was > 2500 nM throughout.
As to `CC(C)(C)c1cc(N)n(C(=O)Nc2ccc(-n3cnc4ccccc43)cc2)n1` [Compound 116, 5-amino-3-tert-butyl-pyrazol-1-carboxylic acid (4-benzimidazol-1-yl-phenyl)-amide], the GI50 (in data set [1]; in the data set on MKN-45 (c-MET amp)) was > 2500 nM throughout.
